Our source for the LC50 and Drug uptake values is ChEMBL document CHEMBL3046737, “Mode of Action of Cyanohydrins in Insects” (J Pestic Sci, 2005).

Each structure is given as a SMILES string. ≈ marks a conversion by molar mass, not a printed value.

The subject of series [1] is Musca domestica. As to the kind of experiment: Insecticidal activity against Musca domestica (house fly) after 24 hr. It counts as functional.
The test system of series [2] is Rhyzopertha dominica. As to the kind of experiment: Insecticidal activity against Rhyzopertha dominica after 24 hr. It counts as functional.
The test system of series [3] is Musca domestica. Kind of series: Drug level in Musca domestica (house fly) at 1000 ug after 24 hr by spectrophotometric method. It counts as ADME, organism-based. The note with it: in vivo.
Series [4] relates to Musca domestica. Kind of series: Drug level in Musca domestica (house fly) assessed as cyanide ion level per gram of insect at L99 treated topically after 24 hr by spectrophotometric method. The following applies: in vivo, topical_or_ocular. It counts as ADME, organism-based.
Series [5] concerns Rhyzopertha dominica. As to the kind of experiment: Drug level in Rhyzopertha dominica assessed as cyanide ion level per gram of insect at L99 treated as fumigation after 24 hr by spectrophotometric method. The note with it: in vivo, other. In kind it is ADME, organism-based.
For series [6], the system named is Musca domestica. As to the kind of experiment: Drug level in Musca domestica (house fly) assessed as cyanide ion level per gram of insect at L99 treated as fumigation after 24 hr by spectrophotometric method. It counts as ADME, organism-based. The following applies: in vivo, inhaled_or_intranasal.

On to `C=CC(O)C#N` (centres undefined), for which the LC50 stood at 0.056 µg/mL (≈ 0.674 µM) in series [1] and 0.37 µg/mL (≈ 4.45 µM) in series [2]. Besides, the Drug uptake in series [3] worked out at 53%; in series [4], 52 ppm; in series [5] it was 35 ppm; in series [6], 38 ppm.

With `C=CC(C#N)OC(C)=O` (centres undefined) [1-CYANOALLYL ACETATE], the LC50 in series [1] worked out at 0.26 µg/mL; in series [2] it was 0.37 µg/mL. Moreover, the Drug uptake turned out to be 53% in series [3], 54 ppm in series [4], 33 ppm in series [5] and 39 ppm in series [6].

On to `CCC(Cl)Cl` [DICHLOROPROPANE], for which the LC50 in series [1] amounted to 0.9 µg/mL (≈ 7.97 µM); in series [2], 5.47 µg/mL (≈ 48.4 µM).

In the case of `COP(=O)(OC)OC=C(Cl)Cl` [DICHLORVOS], the results for the LC50 in series [1] and in series [2] were 0.011 µg/mL (≈ 0.0498 µM) and 0.29 µg/mL (≈ 1.31 µM), respectively.

Consider `CC(C)(O)C#N` [DIMETHYLKETONE CYANOHYDRIN], for which the results for the LC50 in series [1] and in series [2] were 0.07 µg/mL (≈ 0.823 µM) and 0.4 µg/mL (≈ 4.7 µM), respectively. The Drug uptake in series [3] is recorded as 53%; in series [4] it was 56 ppm; in series [5], 43 ppm; in series [6] it was 48 ppm.

For `CCC(C)(O)C#N` (centres undefined) [METHYLETHYL KETONE CYANOHYDRIN], the figures for the LC50 in series [1] and in series [2] were 0.09 µg/mL (≈ 0.908 µM) and 0.41 µg/mL (≈ 4.14 µM), respectively.
